Measured values: patent US20100093773A1, “METHODS OF TREATING CANCER” (Myriad Pharmaceuticals, Inc., priority 2007, published 2010)
Where a name gives a salt, the structure may show the parent alone.

Assays:
[1] = tested on: human ovarian OVCAR-3 carcinoma cells; assay: Vascular disruption effects in human tumor xenograft model (tumor histology, hematoxylin and eosin Y); assay type: in vivo, Crl:Nu/Nu-nuBR mice; conditions: OVCAR-3 xenograft, 24 hours after dosing; for blood vessels in the necrotic areas / tumor necrosis pattern (central area of the tumors): 10 mg/kg test compound, 100 mg/kg CA4P
Procedure: (4-Methoxy-phenyl)-methyl-(2-methyl-quinazolin-4-yl)-amine hydrochloride was tested in a human tumor xenograft model to determine its vascular disruption effects. Crl:Nu/Nu-nuBR mice were grown and injected with 1×10^7 human ovarian OVCAR-3 carcinoma cells on the right flank and allowed to grow to various tumor volumes. Mice were then dosed with either vehicle, 100 mg/kg combretastatin A-4 phosphate (CA4P) (obtained from Toronto Research Chemicals, Ontario, Canada) or 10 mg/kg (4-Methoxy-phenyl)-methyl-(2-methyl-quinazolin-4-yl)-amine hydrochloride.
Animals were housed by groups in Positive Individual Ventilation (PIV) cages in flat-bottom cages (Thoren Caging Systems, Hazelton, Pa.) with no more than ten mice per cage. Cages contained autoclaved TEK-Fresh bedding (Harlan, Indianapolis, Ind.), which was changed every seven days. Environmental controls were set to maintain a temperature between 65° F. and 75° F. with a relative humidity of 30-70% in a 12:12 hour light:dark cycle. Animals were feed gamma-irradiated 2019 rodent chow ad libitum (Harlan, Indianapolis, Ind.). Tap water was sterilized using manufacture recommended conditions and supplied via an automated watering system ad libitum (Edstrom Industries, Waterford, Wis.). Twenty four hours after dosing, mice were sacrificed and tumors and hearts removed, fixed, sectioned and stained with hematoxylin and eosin Y (each obtained from Richard Allen Scientific, Kalamazoo, Mich.).

[2] = Phase I clinical trial, weekly intravenous administration, subjects with refractory solid tumors (safety, tolerability); assay type: in vivo, human; conditions: i.v. weekly x3 per 4 week cycle, 0.3-3.3 mg/m^2
Procedure: An open-label, dose-escalating, multiple-dose study to define the safety, tolerability and pharmacokinetics of weekly intravenous administration of (4-Methoxy-phenyl)-methyl-(2-methyl-quinazolin-4-yl)-amine hydrochloride was performed. A dosing schedule (each 4 week cycle) was performed for (4-Methoxy-phenyl)-methyl-(2-methyl-quinazolin-4-yl)-amine hydrochloride weekly for 3 weeks with no infusion on the fourth week of each cycle. Subjects with refractory solid tumors were enrolled in cohorts of 3. During Cycle 1, subjects were hospitalized during each infusion of (4-Methoxy-phenyl)-methyl-(2-methyl-quinazolin-4-yl)-amine hydrochloride and remained for observation and safety evaluation for approximately 24 hours following the end of the infusion. All subject had continuous telemetry for 2 hours prior to infusion, for 1-2 hour infusion and for 3 hours after the end of the infusion. Any clinically significant electrocardiographic (ECG) wave form abnormality was recorded and prolongation of the monitoring period extended at the discretion of the principal investigator.
Electrocardiograms were obtained prior to starting the infusion and within 30 minutes of the end of infusion for each infusino of the first cycle. Electrocardiograms on Day 1 were obtained in triplicate 5 minutes apart.
Neurocognitive assessments were made by administration of the Mini-Mental State Examination (MMSE), the Hopkins Verbal Learning and timed Grooved Pegboard tests before administration of the intravenous infusion and approximately 24 hours of the infusion at each weekly administration of the first cycle.
On days 1, 8, and 15 of each cycle, vital signs were obtained prior to the first dose, at 15, 30, and 60 minutes after the initiation of the infusion, and at 0.5, 1, 1.5, 2, and 4 hours after the end of the intravenous infusion. Vital signs at all time points beyond the start of the intravenous infusion included heart rate, blood pressure and respirations. Temperature was measured at the end of the infusion and 4 hours later.
Individual subjects were allowed to continue on repeated weekly ×3 administrations every 28 days with no dose increase provided there was no unacceptable toxicity or disease progression.
Tumor response was evaluated by response evaluation criteria in solid tumors (RECIST) criteria. To prevent sever hypersensitivity reactions due to Cremophor® EL, subjects were premedicated with oral dexamethasone (20 mg) administered approximately 12 and 6 hours before the intervenous infusion with (4-Methoxy-phenyl)-methyl-(2-methyl-quinazolin-4-yl)-amine hydrochloride, diphenhydramine (50 mg) or its equivalent administered intravenously 30-60 minutes before (4-Methoxy-phenyl)-methyl-(2-methyl-quinazolin-4-yl)-amine hydrochloride, and cimetidine (300 mg) or ranitidine (50 mg) administered intravenously 30-60 minutes before (4-Methoxy-phenyl)-methyl-(2-methyl-quinazolin-4-yl)-amine hydrochloride.

| Structure (SMILES) | blood vessels in the necrotic areas [1] | tumor necrosis pattern (central area of the tumors) [1] | degree of necrosis compared with CA4P treated animals ([1]; 10 mg/kg vs 100 mg/kg CA4P) | bradycardia [2] | dose limiting toxicity [2] | intratumor bleeding [2] | overall safety and tolerability [2] | peripheral cytotoxicity [2] | systolic blood pressure [2] | effects on cardiac conduction (PR, QRS or QTC) ([2]; ECG) |
| --- | --- | --- | --- | --- | --- | --- | --- | --- | --- | --- |
| COc1ccc(N(C)c2nc(C)nc3ccccc23)cc1 [(4-Methoxy-phenyl)-methyl-(2-methyl-quinazolin-4-yl)-amine hydrochloride] | consistently congested with perivascular hemorrhage | extensive necrosis with a rim of viable tumor tissue around the periphery | greater | occasional episodes of bradycardia | vascular in nature, manifested by an acute coronary syndrome | incidences of intratumor bleeding | safe and tolerable | no evidence of cytotoxity peripherally | dose-related increase | no significant effects |
| COc1ccc(/C=C\c2cc(OC)c(OC)c(OC)c2)cc1OP(=O)(O)O [CA4P, combretastatin A-4 phosphate, reference compound] | consistently congested with perivascular hemorrhage | extensive necrosis with a rim of viable tumor tissue around the periphery |  |  |  |  |  |  |  |  |
